{"source": "paper PMC9837035", "about": "(Nature Communications, 2023)", "key": {"[1]": {"tested_on": "H3K9me2 at the β-globin locus", "assay": "ChIP-qPCR with antibody against H3K9me2 in HUDEP-2 cells", "type": "cell-based, human", "parameters": "ChIP-qPCR using antibodies against H3K9me2 in HUDEP-2 cells: scale not given here", "conditions": "for ChIP-qPCR using antibodies against H3K9me2 in HUDEP-2 cells: experiments 1-3, a/b replicates", "description": "A total of 0.5–1 × 10^6 cells were cross-linked with 1% formaldehyde for 10 min at room temperature and the reaction was quenched with 250 mM glycine. Cross-linked cells were then lysed with buffer 1 (15 mM Tris-HCl (pH 7.5), 60 mM KCl, 15 mM NaCl, 5 mM MgCl2, 0.1 mM EGTA, 300 mM sucrose, […], 1 mM phenylmethanesulfonyl fluoride (PMSF), 0.5% NP40) and incubated on ice for 10 min. After centrifugation, the pellet was re-suspended in buffer 2 (15 mM Tris-HCl (pH 7.5), 60 mM KCl, 15 mM NaCl, 5 mM MgCl2, 0.1 mM EGTA, 1.2 M sucrose, […], 1 mM PMSF). After centrifugation, the pellet was then re-suspended in MNase buffer (50 mM Tris-HCl (pH 7.5), 1 mM CaCl2, 4 mM MgCl2, 320 mM sucrose, 1 mM PMSF) and digested with 100 U of micrococcal nuclease (Takara) at 37 °C for 15 min. After the reaction was quenched with 20 mM EDTA, the supernatants were incubated with antibodies (anti-H3K9me2 (1:100), Abcam, ab1220; anti-H3K9ac (1:100), Active Motif, 39917; Goat anti-IgG (H + L) (1:100), Jackson Immunoresearch; anti-BCL11A (1:100), Novus Biologicals, NB600-261; anti-ZBTB7A (1:100), Thermo Fisher Scientific, eBioscience (13E9); anti-CHD3 (1:100), Novus Biologicals, NB-100-60412; anti-CHD4 (1:100), abcam, ab240640) and Protein A/G PLUS-Agarose (Santa Cruz Biotechnology) overnight at 4 °C. Beads were washed sequentially once with the following buffers: wash buffer A (50 mM Tris-HCl (pH 7.5), 75 mM NaCl, 10 mM EDTA, 0.01% NP40), wash buffer B (50 mM Tris-HCl (pH 7.5), 100 mM NaCl, 10 mM EDTA, 0.01% NP40), wash buffer C (50 mM Tris-HCl (pH 7.5), 175 mM NaCl, 10 mM EDTA, 0.01% NP40). After treatment with proteinase K in buffer 4 (20 mM Tris-HCl (pH 8.0), 10 mM EDTA, 400 mM NaCl, 0.5% SDS) at 56 °C overnight, DNA was purified using the FastGene Gel/PCR Extraction Kit (Nippon Genetics). The samples were analyzed by qPCR. Primers are listed in Supplementary Table 10. ChIP-seq experiments were performed by GENEWIZ. Tracks were visualized using the integrative genome viewer. ChIP-seq analysis were analyzed Cutadapt (V1.9.1) for QC, FastQC (V0.10.1) for QC assessment, Bowtie (V2.1.0) for mapping, strand cross-correlation (SCC) for ChIP quality assessment, MACS2 for peak calling, and R package ChIPpeakAnno for Peak annotated."}, "[2]": {"assay": "Liver microsomal stability assay, human", "type": "in vitro ADME", "conditions": "for Metabolic stability, % remaining of RK-701: Human", "description": "(§1) [Human/Rat] Liver microsome analyses (human, rat) were performed in triplicate by the Sumika Chemical Analysis Service (SCAS) according to the standard protocols. […] [Dog/Monkey] Liver microsome analyses (dog, monkey) were performed in duplicate by RIKEN according to the same protocols as SCAS."}, "[3]": {"assay": "Liver microsomal stability assay, dog", "type": "in vitro ADME", "conditions": "for Metabolic stability, % remaining of RK-701: Dog", "description": "as §1"}, "MLL2 [4]": {"target": "MLL2", "sequence (O14686 5319-5537)": "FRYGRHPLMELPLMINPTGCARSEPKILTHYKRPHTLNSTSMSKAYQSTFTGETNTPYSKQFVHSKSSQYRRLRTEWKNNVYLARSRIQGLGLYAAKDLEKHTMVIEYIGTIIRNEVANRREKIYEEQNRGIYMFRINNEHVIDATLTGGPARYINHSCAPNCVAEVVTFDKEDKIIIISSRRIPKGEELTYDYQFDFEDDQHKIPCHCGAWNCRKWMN", "sequence (Q9C005 whole entry, further chain)": "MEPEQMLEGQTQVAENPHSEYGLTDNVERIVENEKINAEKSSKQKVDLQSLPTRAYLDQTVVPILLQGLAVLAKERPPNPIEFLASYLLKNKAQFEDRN", "sequence (Q15291 whole entry, further chain)": "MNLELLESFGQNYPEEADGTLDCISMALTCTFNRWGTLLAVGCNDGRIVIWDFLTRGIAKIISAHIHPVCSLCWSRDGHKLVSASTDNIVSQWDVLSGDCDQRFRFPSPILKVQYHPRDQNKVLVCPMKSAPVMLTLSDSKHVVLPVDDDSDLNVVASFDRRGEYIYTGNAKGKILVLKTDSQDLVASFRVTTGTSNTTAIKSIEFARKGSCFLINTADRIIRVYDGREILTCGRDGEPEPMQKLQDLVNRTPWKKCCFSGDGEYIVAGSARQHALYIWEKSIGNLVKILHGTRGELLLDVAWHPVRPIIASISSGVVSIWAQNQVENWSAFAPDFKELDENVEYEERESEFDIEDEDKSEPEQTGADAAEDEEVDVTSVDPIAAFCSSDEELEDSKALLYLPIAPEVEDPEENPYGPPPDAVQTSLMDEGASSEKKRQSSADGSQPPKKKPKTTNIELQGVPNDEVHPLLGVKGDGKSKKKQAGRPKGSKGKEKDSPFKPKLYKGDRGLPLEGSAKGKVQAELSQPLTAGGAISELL", "sequence (Q9UBL3 whole entry, further chain)": "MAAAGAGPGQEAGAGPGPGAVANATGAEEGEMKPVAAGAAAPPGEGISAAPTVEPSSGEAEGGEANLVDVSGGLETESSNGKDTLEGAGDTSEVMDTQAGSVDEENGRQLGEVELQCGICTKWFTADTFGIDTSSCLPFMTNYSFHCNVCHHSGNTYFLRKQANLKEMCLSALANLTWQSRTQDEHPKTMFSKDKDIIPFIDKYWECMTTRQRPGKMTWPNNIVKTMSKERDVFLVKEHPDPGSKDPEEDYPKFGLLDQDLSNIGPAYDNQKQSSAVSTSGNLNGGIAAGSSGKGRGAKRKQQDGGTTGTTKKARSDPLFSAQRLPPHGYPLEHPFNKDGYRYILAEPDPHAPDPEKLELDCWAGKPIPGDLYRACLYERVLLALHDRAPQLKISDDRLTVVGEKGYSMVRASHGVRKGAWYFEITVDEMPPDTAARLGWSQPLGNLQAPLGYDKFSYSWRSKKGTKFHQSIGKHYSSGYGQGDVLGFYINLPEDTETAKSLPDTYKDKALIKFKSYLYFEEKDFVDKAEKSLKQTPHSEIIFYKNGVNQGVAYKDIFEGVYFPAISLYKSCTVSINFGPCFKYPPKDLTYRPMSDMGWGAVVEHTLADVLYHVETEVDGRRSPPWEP"}, "DNMT1": {"target": "DNMT1 (Homo sapiens, UniProt P26358)", "sequence (P26358 whole entry)": "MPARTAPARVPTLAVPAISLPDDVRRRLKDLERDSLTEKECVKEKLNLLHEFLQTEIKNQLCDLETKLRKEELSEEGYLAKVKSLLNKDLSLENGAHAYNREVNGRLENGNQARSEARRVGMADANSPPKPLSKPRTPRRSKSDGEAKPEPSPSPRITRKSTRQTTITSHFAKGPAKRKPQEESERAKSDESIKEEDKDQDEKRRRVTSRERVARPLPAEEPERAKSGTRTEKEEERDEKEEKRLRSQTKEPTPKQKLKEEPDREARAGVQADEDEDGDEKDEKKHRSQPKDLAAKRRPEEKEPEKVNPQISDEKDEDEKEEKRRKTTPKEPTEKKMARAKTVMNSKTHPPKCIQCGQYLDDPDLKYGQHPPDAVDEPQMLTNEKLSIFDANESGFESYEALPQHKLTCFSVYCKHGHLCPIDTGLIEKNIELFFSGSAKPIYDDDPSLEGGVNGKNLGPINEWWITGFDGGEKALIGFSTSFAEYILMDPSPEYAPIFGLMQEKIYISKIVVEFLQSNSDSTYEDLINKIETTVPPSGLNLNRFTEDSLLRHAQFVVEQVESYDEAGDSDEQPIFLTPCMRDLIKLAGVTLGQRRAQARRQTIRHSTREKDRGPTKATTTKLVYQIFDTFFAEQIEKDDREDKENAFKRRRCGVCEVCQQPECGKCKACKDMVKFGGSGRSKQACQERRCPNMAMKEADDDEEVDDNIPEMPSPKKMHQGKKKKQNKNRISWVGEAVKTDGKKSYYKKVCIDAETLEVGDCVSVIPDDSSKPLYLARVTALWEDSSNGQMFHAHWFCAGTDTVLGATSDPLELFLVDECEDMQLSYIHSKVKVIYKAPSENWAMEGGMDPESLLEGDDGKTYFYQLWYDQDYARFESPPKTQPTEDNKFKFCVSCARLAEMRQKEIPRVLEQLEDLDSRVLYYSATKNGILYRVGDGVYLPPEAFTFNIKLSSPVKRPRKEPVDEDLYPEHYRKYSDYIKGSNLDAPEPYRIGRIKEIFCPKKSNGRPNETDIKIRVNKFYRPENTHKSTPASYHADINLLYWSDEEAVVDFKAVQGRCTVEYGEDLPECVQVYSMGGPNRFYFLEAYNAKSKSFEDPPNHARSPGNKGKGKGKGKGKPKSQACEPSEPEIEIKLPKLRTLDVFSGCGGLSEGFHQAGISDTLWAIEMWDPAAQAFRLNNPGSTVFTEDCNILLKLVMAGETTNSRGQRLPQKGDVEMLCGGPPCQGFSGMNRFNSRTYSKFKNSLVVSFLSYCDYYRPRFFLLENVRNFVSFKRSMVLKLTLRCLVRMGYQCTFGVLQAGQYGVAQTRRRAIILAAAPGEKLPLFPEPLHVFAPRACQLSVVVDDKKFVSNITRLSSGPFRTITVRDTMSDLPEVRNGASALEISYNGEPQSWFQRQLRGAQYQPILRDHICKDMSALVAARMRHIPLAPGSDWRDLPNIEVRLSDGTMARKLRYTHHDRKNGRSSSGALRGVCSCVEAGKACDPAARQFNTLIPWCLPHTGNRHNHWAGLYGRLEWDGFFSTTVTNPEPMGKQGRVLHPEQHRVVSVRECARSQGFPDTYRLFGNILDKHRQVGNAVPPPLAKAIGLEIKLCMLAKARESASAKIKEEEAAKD", "assay": "biochemical"}, "PRMT5/MEP50": {"target": "PRMT5/MEP50 (Homo sapiens, UniProt O14744)", "sequence (O14744 whole entry)": "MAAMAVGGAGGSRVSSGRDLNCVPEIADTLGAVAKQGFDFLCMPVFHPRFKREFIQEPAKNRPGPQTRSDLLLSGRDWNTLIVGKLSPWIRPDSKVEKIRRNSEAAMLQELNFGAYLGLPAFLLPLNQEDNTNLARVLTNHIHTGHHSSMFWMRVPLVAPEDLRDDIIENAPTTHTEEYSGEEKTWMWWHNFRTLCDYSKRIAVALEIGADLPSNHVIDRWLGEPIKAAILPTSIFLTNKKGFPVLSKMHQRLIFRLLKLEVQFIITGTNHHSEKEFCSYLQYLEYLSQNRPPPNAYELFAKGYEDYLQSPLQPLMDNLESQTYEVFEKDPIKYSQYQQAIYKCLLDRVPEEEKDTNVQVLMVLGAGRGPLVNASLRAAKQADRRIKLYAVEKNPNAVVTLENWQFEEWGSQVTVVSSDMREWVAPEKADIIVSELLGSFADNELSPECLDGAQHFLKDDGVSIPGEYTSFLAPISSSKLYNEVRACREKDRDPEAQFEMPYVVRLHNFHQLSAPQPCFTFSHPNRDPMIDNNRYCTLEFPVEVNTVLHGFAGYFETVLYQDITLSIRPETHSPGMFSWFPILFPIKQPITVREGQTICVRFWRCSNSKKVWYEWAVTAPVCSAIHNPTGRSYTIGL", "sequence (Q9BQA1 whole entry partner)": "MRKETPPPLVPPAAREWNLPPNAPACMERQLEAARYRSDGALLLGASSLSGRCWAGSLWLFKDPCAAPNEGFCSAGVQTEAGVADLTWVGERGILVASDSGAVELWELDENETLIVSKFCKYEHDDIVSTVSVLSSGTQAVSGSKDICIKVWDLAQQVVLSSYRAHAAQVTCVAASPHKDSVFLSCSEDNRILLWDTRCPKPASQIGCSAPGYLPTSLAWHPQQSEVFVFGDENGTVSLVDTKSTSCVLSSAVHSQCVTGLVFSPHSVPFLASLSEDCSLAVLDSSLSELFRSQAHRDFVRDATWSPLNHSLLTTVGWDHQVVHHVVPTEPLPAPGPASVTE", "assay": "Radioisotope-based methyltransferase assay (selectivity)"}, "MLL2 [5]": {"target": "MLL2 (Homo sapiens, UniProt O14686)", "sequence (O14686 5319-5537)": "as the sequence (O14686 5319-5537) above", "sequence (Q9C005 whole entry, further chain)": "as the sequence (Q9C005 whole entry, further chain) above", "sequence (Q15291 whole entry, further chain)": "as the sequence (Q15291 whole entry, further chain) above", "sequence (Q9UBL3 whole entry, further chain)": "as the sequence (Q9UBL3 whole entry, further chain) above"}}, "note": "Values joined by “and” are separate entries in the source; they are usually repeats but may differ in a detail not shown here. Equal entries are not always repeated.", "data": [{"compound": "NC(=O)NO", "note": "[Hydroxyurea, hydroxyurea]", "values": [{"measurement": "ChIP-qPCR using antibodies against H3K9me2 in HUDEP-2 cells", "setting": "[1]; BGLT3 locus", "value": "0.3036 and 0.9734 and 0.09549 and 0.1907 and 0.4324 and 0.08257"}, {"measurement": "ChIP-qPCR using antibodies against H3K9me2 in HUDEP-2 cells", "setting": "[1]; HS1", "value": "0.1874 and 0.4067 and 0.1711 and 0.2985 and 0.4573 and 0.2803"}, {"measurement": "ChIP-qPCR using antibodies against H3K9me2 in HUDEP-2 cells", "setting": "[1]; HS2", "value": "0.813 and 0.5625 and 0.04813 and 0.5561 and 0.988"}, {"measurement": "ChIP-qPCR using antibodies against H3K9me2 in HUDEP-2 cells", "setting": "[1]; HS3", "value": "0.3829 and 1.033 and 0.3275 and 0.3135 and 0.5984 and 0.1213"}, {"measurement": "ChIP-qPCR using antibodies against H3K9me2 in HUDEP-2 cells", "setting": "[1]; HS4", "value": "0.2695 and 0.4846 and 0.05083 and 0.7217 and 0.09433"}, {"measurement": "H3K9me2 levels at the β-globin gene locus", "setting": "[1]; HUDEP-2, 200 μM, 4 days", "value": "did not alter H3K9me2 levels"}, {"measurement": "ChIP-qPCR using antibodies against H3K9me2 in HUDEP-2 cells", "setting": "[1]; β-globin promoter", "value": "0.2611 and 0.4698 and 0.1317 and 0.1934 and 0.3991 and 0.1179"}, {"measurement": "ChIP-qPCR using antibodies against H3K9me2 in HUDEP-2 cells", "setting": "[1]; γ-globin promoter", "value": "0.6385 and 1.7009 and 0.2449 and 0.8192 and 0.4081"}, {"measurement": "ChIP-qPCR using antibodies against H3K9me2 in HUDEP-2 cells", "setting": "[1]; δ-globin promoter", "value": "0.1111 and 0.2374 and 0.06666 and 0.1168 and 0.2688 and 0.05187"}]}, {"compound": "Cc1c(C(=O)NC(CCC2CC2)C(=O)Nc2ccc(C#N)cc2)[nH]c2c1C(=O)CC(C)(C)C2", "note": "(centres unmarked) [RK-701]", "values": [{"measurement": "Metabolic stability, % remaining of RK-701", "setting": "[2]; Time 5, replicate values", "value": "103.5% and 98.1%"}, {"measurement": "Metabolic stability, % remaining of RK-701", "setting": "[2]; Time 10, replicate values", "value": "104.9% and 98.1%"}, {"measurement": "Metabolic stability, % remaining of RK-701", "setting": "[2]; Time 20, replicate values", "value": "89.6% and 79.6%"}, {"measurement": "Metabolic stability, % remaining of RK-701", "setting": "[2]; Time 30, replicate values", "value": "78.5% and 70.7%"}, {"measurement": "Metabolic stability, % remaining of RK-701", "setting": "[2]; Time 60, replicate values", "value": "68.6% and 60.8%"}, {"measurement": "remaining at 5 min, 1 µM", "setting": "[2]; human, liver microsomes, Metabolic stability, % remaining of RK-701, Human, Time 5, replicate values", "value": 93.1, "unit": "%"}, {"measurement": "remaining at 10 min, 1 µM", "setting": "[2]; human, liver microsomes, Metabolic stability, % remaining of RK-701, Human, Time 10, replicate values", "value": 95.5, "unit": "%"}, {"measurement": "remaining at 20 min, 1 µM", "setting": "[2]; human, liver microsomes, Metabolic stability, % remaining of RK-701, Human, Time 20, replicate values", "value": 80.5, "unit": "%"}, {"measurement": "remaining at 30 min, 1 µM", "setting": "[2]; human, liver microsomes, Metabolic stability, % remaining of RK-701, Human, Time 30, replicate values", "value": 70.4, "unit": "%"}, {"measurement": "remaining at 60 min, 1 µM", "setting": "[2]; human, liver microsomes, Metabolic stability, % remaining of RK-701, Human, Time 60, replicate values", "value": 62.1, "unit": "%"}, {"measurement": "microsomal CLint at 1 μM", "setting": "[2]; human, liver microsomes, read-out: Metabolic stability in liver microsomes CLint", "value": 19, "unit": "µL/min/mg"}, {"measurement": "stability in liver microsomes", "setting": "[2]; various species", "value": "most stable in human liver microsomes"}, {"measurement": "Metabolic stability, % remaining of RK-701", "setting": "[3]; Time 5, replicate values", "value": 67.6, "unit": "%"}, {"measurement": "Metabolic stability, % remaining of RK-701", "setting": "[3]; Time 10, replicate values", "value": "70.7% and 62.6%"}, {"measurement": "Metabolic stability, % remaining of RK-701", "setting": "[3]; Time 20, replicate values", "value": "60.6% and 44.6%"}, {"measurement": "Metabolic stability, % remaining of RK-701", "setting": "[3]; Time 30, replicate values", "value": "51.3% and 40.3%"}, {"measurement": "Metabolic stability, % remaining of RK-701", "setting": "[3]; Time 45, replicate values", "value": "47% and 30%"}, {"measurement": "Metabolic stability, % remaining of RK-701", "setting": "[3]; Time 60, replicate values", "value": "37.6% and 29.4%"}, {"measurement": "remaining at 5 min, 1 µM", "setting": "[3]; dog, liver microsomes, Metabolic stability, % remaining of RK-701, Dog, Time 5, replicate values", "value": 72.6, "unit": "%"}, {"measurement": "remaining at 10 min, 1 µM", "setting": "[3]; dog, liver microsomes, Metabolic stability, % remaining of RK-701, Dog, Time 10, replicate values", "value": 57, "unit": "%"}, {"measurement": "remaining at 20 min, 1 µM", "setting": "[3]; dog, liver microsomes, Metabolic stability, % remaining of RK-701, Dog, Time 20, replicate values", "value": 53.4, "unit": "%"}, {"measurement": "remaining at 30 min, 1 µM", "setting": "[3]; dog, liver microsomes, Metabolic stability, % remaining of RK-701, Dog, Time 30, replicate values", "value": 48.4, "unit": "%"}, {"measurement": "remaining at 45 min, 1 µM", "setting": "[3]; dog, liver microsomes, Metabolic stability, % remaining of RK-701, Dog, Time 45, replicate values", "value": 37.1, "unit": "%"}, {"measurement": "remaining at 60 min, 1 µM", "setting": "[3]; dog, liver microsomes, Metabolic stability, % remaining of RK-701, Dog, Time 60, replicate values", "value": 30.9, "unit": "%"}, {"measurement": "microsomal CLint at 1 μM", "setting": "[3]; dog, liver microsomes, Dug, read-out: Metabolic stability in liver microsomes CLint", "value": 28, "unit": "µL/min/mg"}, {"measurement": "IC50", "setting": "MLL2 [4]", "value": "> 100", "unit": "µM"}, {"measurement": "IC50", "setting": "DNMT1", "value": "> 100", "unit": "µM"}, {"measurement": "IC50", "setting": "PRMT5/MEP50", "value": "> 100", "unit": "µM"}]}, {"compound": "Nc1ncnc2c1ncn2[C@@H]1O[C@H](CSCC[C@H](N)C(=O)O)[C@@H](O)[C@H]1O", "note": "[SAH, S-(5'-Adenosyl)-L-homocysteine, reference compound]", "values": [{"measurement": "IC50", "setting": "MLL2 [5]", "value": 11.6, "unit": "µM"}]}]}
